Series [1] addresses T1, Caco-2-derived dipeptidyl peptidase IV (Homo sapiens, UniProt P27487).
T1 construct: A dipeptidyl peptidase IV crude enzyme solution was prepared from cultured Caco-2 (ATCC HTB-37) cells; endogenous in cells; host or cells: Caco-2 (ATCC HTB-37); Triton X-100 extract, Sephadex G-200 fractions
The series can be described thus: Determination of Caco-2-derived dipeptidyl peptidase IV inhibitory activity. The series is classed as biochemical. The settings on record: Caco-2 crude enzyme solution, substrate Gly-Pro-p-NA, 37° C., absorbance 405 nm after 0 hr. and 3 hrs. As to the method: The enzyme activity of dipeptidyl peptidase IV present in human colonic adenocarcinoma-derived cell line Caco-2 cell membrane has been already reported by Yong S. Chung et al. (Cancer Research, vol. 45, pp. 2976-2982, 1985).
A dipeptidyl peptidase IV crude enzyme solution was prepared from cultured Caco-2 (ATCC HTB-37) cells. The Caco-2 cells were cultured in D-MEM medium (manufactured by Nissui Pharmaceutical Co., Ltd.) containing 10% FBS (fetal bovine serum (manufactured by GIBCO)). […]
An N,N-dimethylformamide solution (5 μl) containing the test compound was added to a mixture of water (25 μl), 1M Tris-hydrochloride buffer (10 μl, pH 7.5) and 1 mM aqueous glycylprolyl-p-nitroanilide (Gly-Pro-p-NA; manufactured by Backem AG) solution (50 μl) to prepare a mixed solution. […] The absorbance after 0 hr. and 3 hrs. was measured using a microplate reader (Multiskan Bichromatic; manufactured by Labsystems) at a wavelength of 405 nm and an increase (ΔODs) was determined. At the same time, an increase (ΔODc) in absorbance of the reaction mixture without the test compound, and an increase (ΔODb) in absorbance of the reaction mixture without the test compound and the enzyme were determined and percent inhibition of dipeptidyl peptidase IV enzyme activity was calculated from the following formula: {1−[(ΔODs−ΔODb)/(ΔODc−ΔODb)]}×100 […]

Series [2] deals with T2, dipeptidyl peptidase IV in rat plasma (Rattus norvegicus, UniProt P14740).
T2 construct: from tissue; host or cells: SD rat blood plasma
The series can be described thus: Determination of dipeptidyl peptidase IV inhibitory activity in rat plasma. It is filed as biochemical. The note with it: SD rat plasma, substrate Gly-Pro-p-NA, 30° C., absorbance 405 nm after 0 hr. and 1 hr. On the procedure:
The reaction was carried out according to the method of Raymond et al. (Diabetes, vol. 47, pp. 1253-1258, 1998) using a 96 well flat-bottomed plate at 30° C. An N,N-dimethylformamide solution (1 μl) containing the test compound was added to a mixture of water (69 μl), 1 M Tris-hydrochloride buffer (10 μl, pH 7.5) and 1 mM aqueous Gly-Pro-p-NA solution (100 μl) to prepare a mixed solution. Plasma (20 μl) prepared from blood of SD rat by a conventional method was added to the above-mentioned mixed solution and the enzyme reaction was started at 30° C. The absorbance after 0 hr. and 1 hr. was measured using a microplate reader at a wavelength of 405 nm and an increase (ΔODs) was determined. At the same time, an increase (ΔODc) in absorbance of the reaction mixture without the test compound, and an increase (ΔODb) in absorbance of the reaction mixture without the test compound and the enzyme were determined and percent inhibition of dipeptidyl peptidase IV enzyme activity was calculated from the following formula: {1−[(ΔODs−ΔODb)/(ΔODc−ΔODb)]}×100
The dipeptidyl peptidase IV inhibitory activity of the test compound group is expressed in IC50 value (μM) and shown in Table 2.

Here are results for ten compounds from patent publication US7547710B2, “Fused heterocyclic compounds as peptidase inhibitors” (Takeda Pharmaceutical Company Limited, priority 2002, dated 2009).

As usually defined, the IC50 is the concentration that inhibits the measured activity by half. A word on the melting point: it is the temperature of the solid-liquid transition.

T1 sequence (P27487 whole entry): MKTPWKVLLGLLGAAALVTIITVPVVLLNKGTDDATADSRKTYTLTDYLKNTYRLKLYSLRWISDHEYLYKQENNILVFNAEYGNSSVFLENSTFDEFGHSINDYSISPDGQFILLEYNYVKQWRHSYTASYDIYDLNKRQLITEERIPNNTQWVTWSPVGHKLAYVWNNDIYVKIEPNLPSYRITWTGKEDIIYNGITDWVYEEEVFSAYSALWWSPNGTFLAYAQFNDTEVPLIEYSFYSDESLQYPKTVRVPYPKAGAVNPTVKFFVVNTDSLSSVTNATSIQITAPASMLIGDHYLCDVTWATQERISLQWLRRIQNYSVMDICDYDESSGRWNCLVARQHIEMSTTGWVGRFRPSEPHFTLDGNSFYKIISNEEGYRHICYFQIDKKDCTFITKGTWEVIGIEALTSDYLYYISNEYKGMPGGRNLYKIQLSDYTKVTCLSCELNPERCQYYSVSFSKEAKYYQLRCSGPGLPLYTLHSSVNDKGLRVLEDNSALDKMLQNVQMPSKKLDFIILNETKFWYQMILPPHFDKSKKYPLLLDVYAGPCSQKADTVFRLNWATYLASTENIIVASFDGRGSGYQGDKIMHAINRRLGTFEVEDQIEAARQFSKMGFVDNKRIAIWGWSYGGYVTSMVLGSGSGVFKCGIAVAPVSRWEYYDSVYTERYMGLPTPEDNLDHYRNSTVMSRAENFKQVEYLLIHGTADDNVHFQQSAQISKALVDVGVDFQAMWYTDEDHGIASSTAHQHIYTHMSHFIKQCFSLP
T2 sequence (P14740 37-767 limits assumed): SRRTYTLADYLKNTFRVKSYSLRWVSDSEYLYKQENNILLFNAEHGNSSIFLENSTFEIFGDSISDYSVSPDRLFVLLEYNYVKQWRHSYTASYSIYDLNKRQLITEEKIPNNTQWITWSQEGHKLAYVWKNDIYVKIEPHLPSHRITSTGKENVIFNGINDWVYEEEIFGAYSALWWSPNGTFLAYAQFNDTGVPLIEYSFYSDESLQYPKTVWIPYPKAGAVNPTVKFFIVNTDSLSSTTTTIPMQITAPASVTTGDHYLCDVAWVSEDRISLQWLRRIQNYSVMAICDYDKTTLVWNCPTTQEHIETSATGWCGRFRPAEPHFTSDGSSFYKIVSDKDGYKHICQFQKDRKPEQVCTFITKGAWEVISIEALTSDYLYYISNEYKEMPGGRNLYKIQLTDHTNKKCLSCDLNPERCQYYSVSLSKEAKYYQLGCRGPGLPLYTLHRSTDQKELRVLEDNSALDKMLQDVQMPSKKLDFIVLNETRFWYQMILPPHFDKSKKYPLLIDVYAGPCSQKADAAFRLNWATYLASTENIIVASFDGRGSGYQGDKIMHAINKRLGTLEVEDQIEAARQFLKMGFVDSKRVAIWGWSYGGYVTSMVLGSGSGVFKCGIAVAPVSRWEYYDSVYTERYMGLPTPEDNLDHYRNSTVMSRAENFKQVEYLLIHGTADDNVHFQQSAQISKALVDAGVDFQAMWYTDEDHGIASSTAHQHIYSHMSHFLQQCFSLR

`CC(C)Cc1nc2ccc(Cl)cc2c(-c2ccccc2)c1CN` [Example 1, (6-chloro-2-isobutyl-4-phenylquinolin-3-yl)methylamine] displayed a melting point of 114 to 116 °C. Besides, half-maximal inhibition in series [1] (IC50) required 710 nM. 1600 nM corresponded to half-maximal inhibition in series [2] (IC50).

`CC(C)Cc1nc2ccc(Br)cc2c(-c2ccccc2)c1CN` [Example 2, (6-bromo-2-isobutyl-4-phenylquinolin-3-yl)methylamine] had a melting point of 129 to 130 °C.

Turning to `CC(C)Cc1nc2ccc(C#N)cc2c(-c2ccccc2)c1CN` [Example 3, 3-(aminomethyl)-2-isobutyl-4-phenylquinoline-6-carbonitrile], the melting point fell in the range of 128 to 130 °C.

For `COc1ccc2nc(CC(C)C)c(CN)c(-c3ccccc3)c2c1` [Example 25, (2-isobutyl-6-methoxy-4-phenylquinolin-3-yl)methylamine], the melting point was 73 to 76 °C.

`COC(=O)c1ccc2nc(CC(C)C)c(CN)c(-c3ccccc3F)c2c1` [Example 29, Methyl 3-(aminomethyl)-4-(2-fluorophenyl)-2-isobutylquinoline-6-carboxylate] yielded a melting point of 138 to 139 °C.

With `Cc1ccc(-c2c(CN)c(CC(C)C)nc3ccc(OCc4ccccc4)cc23)cc1` [Example 30, [6-(benzyloxy)-2-isobutyl-4-(4-methylphenyl)quinolin-3-yl]methylamine], the melting point was 119 to 120 °C.

`CC(C)Cc1nc2ccc(OCC(N)=O)cc2c(-c2cccs2)c1CN` [Example 33, 2-{[3-(aminomethyl)-2-isobutyl-4-thien-2-ylquinolin-6-yl]oxy}acetamide]: the melting point lay in the range of 156 to 157 °C.

Regarding `CC(C)Cc1nc2ccc(OCC(N)=O)cc2c(-c2cccc(F)c2)c1CN` [Example 38, 2-{[3-(aminomethyl)-4-(3-fluorophenyl)-2-isobutylquinolin-6-yl]oxy}acetamide], the melting point was in the range of 106 to 109 °C.

As for `CC(C)(C)Cc1nc2ccc(OCC(N)=O)cc2c(-c2ccccc2)c1CN` [Example 40, 2-{[3-(aminomethyl)-2-(2,2-dimethylpropyl)-4-phenylquinolin-6-yl]oxy}acetamide], the melting point fell in the range of 152 to 154 °C.

`NCc1c(CC2CCCC2)nc2ccc(OCC(N)=O)cc2c1-c1ccccc1` [Example 42, 2-{[3-(aminomethyl)-2-(cyclopentylmethyl)-4-phenylquinolin-6-yl]oxy}acetamide] displayed a melting point of 159 to 160 °C.
